ChEMBL document CHEMBL1144367, “QSAR for anti-RNA-virus activity, synthesis, and assay of anti-RSV carbonucleosides given a unified representation of spectral moments, quadratic, and topologic indices” (2005)
Converted amounts (≈) assume the structure as drawn.

How the values were obtained:
Format in all cases: functional
Conditions in all cases: Homo sapiens
HeLa [1] = test: Minimum inhibitory concentration against respiratory syncytial virus was determined
HeLa [2] = test: Minimum inhibitory concentration against vesicular stomatitis virus was determined
HeLa [3] = test: Minimum inhibitory concentration against coxsackie virus B4 was determined
HeLa [4] = test: Minimum cytotoxicity concentration to HeLa cell line was determined

| Structure (SMILES) | MIC50 (HeLa [1]) | MIC50 (HeLa [2]) | MIC50 (HeLa [3]) | MCC (HeLa [4]) |
| --- | --- | --- | --- | --- |
| NC1=NC2C(N=CN2[C@H]2CCCC[C@H]2CO)C(Cl)=N1 (some centres undefined) | 8 µg/mL (≈ 28.2 µM) | > 200 µg/mL | 120 µg/mL (≈ 423 µM) | > 200 µg/mL |
| OC[C@@H]1CCCC[C@@H]1N1C=NC2C(Cl)=NC=NC21 (some centres undefined) | > 80 µg/mL |  | > 80 µg/mL | 400 µg/mL |
| NC1=NC=NC2C1N=CN2[C@H]1CCCC[C@H]1CO (some centres undefined) | 3.2 µg/mL (≈ 12.8 µM) |  | > 80 µg/mL | 400 µg/mL |
| NC(=O)c1ncn([C@@H]2O[C@H](CO)[C@@H](O)[C@H]2O)n1 [RIBAVIRIN] | 1.92 µg/mL (≈ 7.86 µM) | 16 µg/mL (≈ 65.5 µM) | 48 µg/mL (≈ 197 µM) | > 400 µg/mL |
